Reference: patent US10028992B2, “Methods of treating muscular dystrophy” (BOARD OF REGENTS OF THE NEVADA SYSTEM OF HIGHER EDUCATION …, priority 2012, dated 2018)

System: α7 integrin promoter
Assay: muscle cell-based assay: α7βgal+/− myoblasts/myotubes, LacZ reporter, β-galactosidase cleavage of FDG
Set-up: species or system mouse
Conditions: for AC50: Mus musculus, read-out: Fit Log AC50 (converted); for AC50 / Fit HillSlope / Fit Zero Activity [%] / Fit Curve Class / Fit Infinite Activity [%] / Fit Log AC50: Table 12; for AC50 / Fit Log AC50: log of AC50, given with negative sign, unit of AC50 not given; for Fit HillSlope: curve fit; for Fit Zero Activity [%]: fitted activity at zero concentration; for Fit Curve Class: key not given; for Score: Table 12 Compound data, concentration-response curve fit; for Fit Infinite Activity [%]: fitted activity at infinite concentration
Description: An α7 integrin null mouse was produced in which exon 1 of the gene encoding the α7 integrin was replaced by the LacZ reporter. In these mice, all the transcriptional regulatory elements of the α7 integrin promoter were retained, allowing β-galactosidase to report expression of 7 integrin. A primary myoblast cell line (designated α7βgal^+/−) isolated from 10 day old α7^+/− pups were analyzed for the ability of β-galactosidase to report α7 integrin expression. α7βgal^+/− myoblasts were differentiated and subjected to X-gal staining and western analysis (FIGS. 1A and 1B).
The activity of the α7 integrin promoter was measured by β-galactosidase cleavage of the non-fluorescent compound fluorescein di-β-D-galactopyranoside (FDG) to fluorescein. This assay was used to screen compound libraries to identify molecules that up-regulate α7 integrin expression in muscle.
Also evaluated was the effect of various isoforms of laminin and the ligand for α7β1 integrin on integrin expression. Positive hits were subjected to dose-response analysis, western analysis and a myostatin counterscreen (a negative regulator of muscle growth).

CNc1nnc(SCC(=O)c2cc(C)n(C3CC3)c2C)s1 [Compound 68] was tested, and the AC50 was 12.6 µM, the “Fit HillSlope” value was 4.5045 and the “Fit Zero Activity [%]” value was −17.9914%. The “Fit Curve Class” value was 2.1 and the Score was 44.
With CCCCNc1nnc(SCC(=O)c2c(N)n(CCC)c(=O)[nH]c2=O)s1 [Compound 69] the AC50 was 3.98 µM, the “Fit HillSlope” value was 1.3987 and the “Fit Zero Activity [%]” value was −2.436%. The “Fit Curve Class” value was 2.1 and the Score was 44.
In the case of C/C(=N\OCC(=O)OC(C)C(=O)Nc1ccc(C(N)=O)cc1)c1ccc2c(c1)OCO2 (stereo not drawn) [Compound 70], the AC50 is reported as 4.47 µM, the “Fit HillSlope” value is reported as 1.2876 and the “Fit Zero Activity [%]” value is reported as −19.1057%. The “Fit Curve Class” value was 2.1 and the Score was 44.
COc1cc(C(C(=O)NC2CCCCC2)N(C(=O)c2snc(C(N)=O)c2N)c2ccc(C)cc2)ccc1O (stereo not drawn) [Compound 71] was tested, and the AC50 was 7.94 µM, the “Fit HillSlope” value was 1.3443 and the “Fit Zero Activity [%]” value was −2.1806%. For the same compound, the “Fit Curve Class” value was 2.1 and the Score was 44.
In the case of CC1CCN(S(=O)(=O)c2ccc(S(=O)(=O)N3CCCC3)cc2)CC1 [Compound 72], the AC50 is reported as 8.91 µM, the “Fit HillSlope” value is reported as 2.3332 and the “Fit Zero Activity [%]” value is reported as −2.3089%. The “Fit Curve Class” value was 2.1 and the Score was 44.
In the case of CCC(CC)C(=O)Nc1c(C(=O)N2CCN(c3ccccc3)CC2)oc2ccccc12 [Compound 73], the AC50 is reported as 12.6 µM, the “Fit HillSlope” value is reported as 4.095 and the “Fit Zero Activity [%]” value is reported as 16.3113%. The “Fit Curve Class” value was 2.1 and the Score was 44.
COc1ccc(CCNC(=O)c2nn(C)c3c2CS(=O)(=O)c2ccccc2-3)cc1OC [Compound 74] was tested, and the AC50 was 4.47 µM, the “Fit HillSlope” value was 1.8617 and the “Fit Zero Activity [%]” value was −23.105%. The “Fit Curve Class” value was 2.1 and the Score was 44.
With COc1ccc(Nc2ncnc3ccc(Br)cc23)cc1OC [Compound 75] the AC50 was 3.98 µM, the “Fit HillSlope” value was 1.5579 and the “Fit Zero Activity [%]” value was 26.9551%. For the same compound, the “Fit Curve Class” value was 2.2 and the Score was 44.
In the case of CCOc1ccc2ccccc2c1C1NC(=O)N(C)C(C)=C1C(=O)OCCOC (stereo not drawn) [Compound 76], the AC50 is reported as 6.31 µM, the “Fit HillSlope” value is reported as 1.3443 and the “Fit Zero Activity [%]” value is reported as −8.518%. The “Fit Curve Class” value was 2.1 and the Score was 44.
For Cc1ccc(NC(=O)NCc2nc3ccccc3n2C)cc1 [Compound 77], the AC50 was 4.47 µM, the “Fit HillSlope” value was 1.8617 and the “Fit Zero Activity [%]” value was −34.2328%. The “Fit Curve Class” value was 2.1 and the Score was 44.
With COc1ccc(C(=O)ONC(=N)c2cccc(C)c2)cc1OC [Compound 78] the AC50 was 10 µM, the “Fit HillSlope” value was 1.7137 and the “Fit Zero Activity [%]” value was 9.6566%. The “Fit Curve Class” value was 2.1 and the Score was 44.
With CNc1cc([N+](=O)[O-])ccc1OCc1ccccc1 [Compound 79] the AC50 was 4.47 µM, the “Fit HillSlope” value was 1.3437 and the “Fit Zero Activity [%]” value was −0.3646%. The “Fit Curve Class” value was 2.1 and the Score was 44.
COC(=O)Cc1c(O)ccn(Cc2ccc3c(c2)OCO3)c1=O [Compound 80] was tested, and the AC50 was 10 µM, the “Fit HillSlope” value was 1.4163 and the “Fit Zero Activity [%]” value was −6.484%. For the same compound, the “Fit Curve Class” value was 2.1 and the Score was 44.
For O=C(Nc1ccccc1F)c1ccc([N+](=O)[O-])s1 [Compound 81], the AC50 was 12.6 µM, the “Fit HillSlope” value was 4.5045 and the “Fit Zero Activity [%]” value was 3.1931%. The “Fit Curve Class” value was 2.1 and the Score was 44.
In the case of C/N=C(\S)N1CCC(NC(=O)C(Cc2ccc(F)cc2)NC(C)=O)CC1 (stereo not drawn) [Compound 82], the AC50 is reported as 3.16 µM, the “Fit HillSlope” value is reported as 1.1341 and the “Fit Infinite Activity [%]” value is reported as 89.9991%. The “Fit Zero Activity [%]” value was −6.4745%, the “Fit Curve Class” value was 2.1 and the Score was 44.
In the case of CCS(=O)(=O)N1CCCC(C(=O)c2ccc(OC)cc2C)C1 (stereo not drawn) [Compound 83], the AC50 is reported as 11.2 µM, the “Fit HillSlope” value is reported as 2.0937 and the “Fit Zero Activity [%]” value is reported as −12.9886%. The “Fit Curve Class” value was 2.1 and the Score was 44.
For CCCS(=O)(=O)N1CCCC(C(=O)c2cccc(Cl)c2)C1 (stereo not drawn) [Compound 84], the AC50 was 6.31 µM, the “Fit HillSlope” value was 1.2221 and the “Fit Zero Activity [%]” value was −7.9639%. For the same compound, the “Fit Curve Class” value was 2.1 and the Score was 44.
For CC(C)(C)c1ccc(C(=O)OCC(=O)Nc2sc3c(c2C#N)CCC3)cc1 [Compound 85], the AC50 was 5.01 µM, the “Fit HillSlope” value was 1.8617 and the “Fit Zero Activity [%]” value was 3.2331%. The “Fit Curve Class” value was 2.1 and the Score was 44.
In the case of Cc1ccc(C2=C(CC(=O)O)C(=O)CC2)cc1 [Compound 86], the AC50 is reported as 4.47 µM, the “Fit HillSlope” value is reported as 0.8 and the “Fit Zero Activity [%]” value is reported as 0.4963%. For the same compound, the “Fit Curve Class” value was 2.1 and the Score was 44.
With CN(C)c1ccnc2sc(C(N)=O)c(N)c12 [Compound 87] the “Fit HillSlope” value was 2.1211, the “Fit Zero Activity [%]” value was 21.3502% and the “Fit Curve Class” value was 2.2. It also gave a Score of 44.
With C[C@H]1CNC(=O)c2c(C(=O)Nc3ccc(CNC(=O)OC(C)(C)C)cc3)ncn21 [Compound 88] the AC50 was 8.91 µM, the “Fit HillSlope” value was 1.01 and the “Fit Zero Activity [%]” value was 9.418%. For the same compound, the “Fit Curve Class” value was 2.1 and the Score was 43.
For CCCN(C(=O)c1ccc(S(=O)(=O)N2CCCC2)cc1)C1CCS(=O)(=O)C1 (stereo not drawn) [Compound 89], the AC50 was 5.01 µM, the “Fit HillSlope” value was 1.6924 and the “Fit Zero Activity [%]” value was −10.8957%. The “Fit Curve Class” value was 2.2 and the Score was 43.
CN(CC(=O)Nc1cccc(F)c1)C(=O)c1ccc(-c2ccc(Cl)cc2)o1 [Compound 90] was tested, and the AC50 was 11.2 µM, the “Fit HillSlope” value was 4.5045 and the “Fit Zero Activity [%]” value was 5.7331%. The “Fit Curve Class” value was 2.1 and the Score was 43.
COc1ccc(C(=O)N/C(=C/c2cccnc2)C(=O)N2CCN(C)CC2)cc1OC [Compound 92] was tested, and the AC50 was 4.47 µM, the “Fit HillSlope” value was 1.6259 and the “Fit Zero Activity [%]” value was 1.7602%. The “Fit Curve Class” value was 2.2 and the Score was 43.
COc1cccc(C(=O)NCC(=O)N2CCC3(CC2)NCCc2[nH]cnc23)c1 [Compound 93] was tested, and the AC50 was 11.2 µM, the “Fit HillSlope” value was 1.7529 and the “Fit Zero Activity [%]” value was −3.6365%. For the same compound, the “Fit Curve Class” value was 2.1 and the Score was 43.
For COc1ccc(-c2csc3ncnc(N4CCN(c5ccccc5[N+](=O)[O-])CC4)c23)cc1 [Compound 94], the “Fit HillSlope” value was 4.9549, the “Fit Infinite Activity [%]” value was 138.031% and the “Fit Zero Activity [%]” value was 9.6823%. The “Fit Curve Class” value was 2.1, the “Fit Log AC50” value was −5 and the Score was 43.
O=C(COc1cc2oc(=O)c3c(c2cc1Cl)CCCC3)NC[C@H]1CC[C@H](C(=O)O)CC1 [Compound 95] was tested, and the AC50 was 7.08 µM, the “Fit HillSlope” value was 1.01 and the “Fit Zero Activity [%]” value was −14.8966%. For the same compound, the “Fit Curve Class” value was 2.2 and the Score was 43.
COCCn1c(=N)c(S(=O)(=O)c2ccc(Br)cc2)cc2c(=O)n3ccccc3nc21 [Compound 96] was tested, and the AC50 was 4.47 µM, the “Fit HillSlope” value was 1.9887 and the “Fit Zero Activity [%]” value was −8.0822%. For the same compound, the “Fit Curve Class” value was 2.2 and the Score was 43.
For CN(Cc1c(C(=O)N/N=C/c2cccc(F)c2)nnn1-c1nonc1N)c1ccccc1 [Compound 97], the AC50 was 5.62 µM, the “Fit HillSlope” value was 3.132 and the “Fit Zero Activity [%]” value was 1.2108%. For the same compound, the “Fit Curve Class” value was 2.2 and the Score was 43.
In the case of COc1ccc(N(CC(=O)NCCC(C)C)C(=O)c2snc(C(=O)NC3CCCCC3)c2N)c(OC)c1 [Compound 98], the AC50 is reported as 10 µM, the “Fit HillSlope” value is reported as 4.5045 and the “Fit Zero Activity [%]” value is reported as −0.0479%. The “Fit Curve Class” value was 2.1 and the Score was 43.
In the case of CC1(C)CC(O)=C/C(=N\c2ccc(C(=O)O)c(O)c2)C1 [Compound 99], the AC50 is reported as 10 µM, the “Fit HillSlope” value is reported as 2.1211 and the “Fit Zero Activity [%]” value is reported as 0%. The “Fit Curve Class” value was 2.1 and the Score was 43.
With COC(=O)c1ccccc1NC(=O)c1cc[n+]([O-])cc1 [Compound 100] the AC50 was 3.98 µM, the “Fit HillSlope” value was 1.01 and the “Fit Zero Activity [%]” value was −31.5116%. The “Fit Curve Class” value was 2.1 and the Score was 43.
In the case of CN(C)C1(C/N=C/c2cc(Cl)cc([N+](=O)[O-])c2O)CCCCC1 [Compound 101], the “Fit HillSlope” value is reported as 1.6604, the “Fit Infinite Activity [%]” value is reported as 115.659% and the “Fit Zero Activity [%]” value is reported as −15.8708%. For the same compound, the “Fit Curve Class” value was 2.1, the “Fit Log AC50” value was −5.05 and the Score was 43.
CS(=O)(=O)Cc1cccc(C(=O)NN(c2ccccc2)c2ccccc2)c1 [Compound 102] was tested, and the AC50 was 12.6 µM, the “Fit HillSlope” value was 4.5045 and the “Fit Zero Activity [%]” value was 10.4042%. For the same compound, the “Fit Curve Class” value was 2.1 and the Score was 43.
With COc1ccccc1CNS(=O)(=O)c1ccc(Cl)s1 [Compound 103] the AC50 was 6.31 µM, the “Fit HillSlope” value was 1.8265 and the “Fit Zero Activity [%]” value was −23.0045%. The “Fit Curve Class” value was 2.1 and the Score was 43.
With O=C(NCCc1ccccc1)C1CCC(=O)N1C1CCCC1 (stereo not drawn) [Compound 104] the AC50 was 10 µM, the “Fit HillSlope” value was 3.6772 and the “Fit Zero Activity [%]” value was −9.1182%. The “Fit Curve Class” value was 2.1 and the Score was 43.
NS(=O)(=O)c1ccc(NC(=O)c2cc(-c3ccccc3O)[nH]n2)cc1 [Compound 105] was tested, and the AC50 was 10 µM, the “Fit HillSlope” value was 3.5117 and the “Fit Zero Activity [%]” value was 16.8467%. For the same compound, the “Fit Curve Class” value was 2.1 and the Score was 43.
For Fc1ccc(-c2ccnn2-c2ccccc2)cc1 [Compound 107], the AC50 was 4.47 µM, the “Fit HillSlope” value was 1.4781 and the “Fit Zero Activity [%]” value was −19.2206%. For the same compound, the “Fit Curve Class” value was 2.1 and the Score was 43.
